Test results published in patent US5965539A, “Inhibitors of prenyl transferases” (Univeristy of Pittsburgh, priority 1996, dated 1999).
Read-outs that look alike come from different tables or passages of the source.

How the values were obtained:
Format in all cases: biochemical
GGTase I = biological target: T1, GGTase I (Homo sapiens, UniProt P53609); test: GGTase I activity assay: transfer of [3H]geranylgeranyl to recombinant H-Ras-CVLL, Daudi 60,000xg supernatant
T1 construct: FTase and GGTase I activities from 60,000×g supernatants of human Burkitt lymphoma (Daudi) cells; endogenous in cells; host or cells: human Burkitt lymphoma (Daudi) cells, 60,000xg supernatant (partially purified)
Method: FTase and GGTase I activities from 60,000×g supernatants of human Burkitt lymphoma (Daudi) cells (ATCC, Rockville, Md., USA) were assayed as described previously for FTase (41). Briefly, 100 μg of the supernatant was incubated in 50 mM Tris, pH 7.5, 50 μM ZnCl2, 20 mM KCl and 1 mM dithiothreitol (DTT). The reaction was incubated at […] for 30 min with recombinant Ha-Ras-CVLS (11 μM) and [^3 H]FPP (625 nM; 16.3 Ci/mmol) for FTase, and recombinant Ha-Ras-CVLL (5 μM) and [^3 H]geranylgeranylpyrophosphate (525 nM; 19.0 Ci/mmol) for GGTase I. The peptidomimetics were mixed with FTase and GGTase before adding to the reaction mixture.
(§1) Human Burkitt lymphoma (Daudi) cells (ATCC, Rockville, Md.) were grown in suspension in RPMI 1640 medium containing 10% fetal bovine serum (FBS) and 1% Pen-Strep in a humidified 10% CO2 incubator at 37° C. The cells were harvested and sonicated in 50 mM Tris, pH 7.5, 1 mM EDTA, 1 mM EGTA, 25 μg/ml leupeptin, 1 mM phenylmethylsulfonyl fluoride. Homogenates were then spun at 12,000×g and the resulting supernatant further spun at 60,000×g. The supernatant was assayed for both FTase and GGTase I. Briefly, 100 μg of the supernatants was incubated in 50 mM Tris, pH 7.5, 50 μM ZnCl2, 20 mM KCl, 3 mM MgCl2 and 1 mM DTT. For FTase assays, the reaction was incubated at 37° C. for 30 minutes with recombinant H-Ras-CVLS (11 μM) and [^3 H] FPP (625 nM; 16.3 Ci/mmol). For GGTase assays, the reaction was also incubated for 30 minutes at 37° C. but with recombinant H-Ras-CVLL (5 μM) and [^3 H] GGPP (525 nM; 19.0 Ci/mmol). The reaction was stopped and passed through glass fiber filters to separate free and incorporated label. For inhibition studies, the peptidomimetics were premixed with FTase or GGTase I prior to adding the remainder of the reaction mixture. Recombinant H-Ras-CVLS was prepared as described previously (26) from bacteria (31). Recombinant H-Ras-CVLL was prepared from bacteria (32).
FTase and GGTase I activities from 60,000×g supernatants of human Burkitt lymphoma (Daudi) cells (ATCC, Rockville, Md.) were assayed exactly as described previously for FTase (41). Inhibition studies were performed by determining the ability of Ras CAAX peptidomimetics to inhibit the transfer of [^3 H]-farnesyl and [^3 H]-geranylgeranyl from [^3 H]FPP and [^3 H]GGPP to H-ras-CVLS and H-Ras-CVLL, respectively (41).

FTase [1] = biological target: T2, FTase (Homo sapiens, UniProt P49356); test: FTase activity assay: transfer of [3H]farnesyl from FPP to recombinant H-Ras-CVLS, Daudi 60,000xg supernatant; details: for Selectivity: FTase over GGTase I; for GG/F: ratio GGTase I IC50 / FTase IC50
T2 construct: FTase and GGTase I activities from 60,000×g supernatants of human Burkitt lymphoma (Daudi) cells; endogenous in cells; host or cells: human Burkitt lymphoma (Daudi) cells, 60,000xg supernatant (partially purified)
Method: FTase and GGTase I activities from 60,000×g supernatants of human Burkitt lymphoma (Daudi) cells (ATCC, Rockville, Md., USA) were assayed as described previously for FTase (41). Briefly, 100 μg of the supernatant was incubated in 50 mM Tris, pH 7.5, 50 μM ZnCl2, 20 mM KCl and 1 mM dithiothreitol (DTT).
as §1, with “For FTase assays, the reaction was incubated at 37° C. for 30 minutes with recombinant H-Ras-CVLS (11 μM) and [^3 H]” left out, “Recombinant H-Ras-CVLS was prepared as described previously (26) from bacteria (31).” left out
FTase and GGTase I activities from 60,000×g supernatants of human Burkitt lymphoma (Daudi) cells (ATCC, Rockville, Md.) were assayed exactly as described previously for FTase (41).

FTase [2] = biological target: T2, FTase; test: Peptidomimetics farnesylation assay (silica gel TLC); details: Table 4; substrate for farnesylation, TLC
Method: The ability of human Burkitt lymphoma (Daudi) FTase to farnesylate peptides and peptidomimetics was determined as described previously (34, 35). Briefly, 25 μl of reaction mixture containing 50 μg of 60,000×g supernatants and 20 μM peptidomimetic in 50 mM Tris, pH 7.5, 50 μM ZnCl2, 20 mM KCl, 3 mM MgCl2, 1 mM DTT and 0.2% octylβ-D-glucoside was incubated for 30 minutes at 37° C., then spotted onto silica gel G TLC sheets (20×20 cm, Brinkmann Instruments), and developed with n-propanol/5 N ammonium hydroxide/water (6:1:1). The dried sheets were sprayed with En^3 Hance (DuPont NEN) and exposed to x-ray film for detection of [^3 H] farnesylated products.

[3] = Table 4, read-out: GGTase-I IC50
[4] = Table 1, read-out: GGTase I IC50

T1 sequence (P53609 whole entry): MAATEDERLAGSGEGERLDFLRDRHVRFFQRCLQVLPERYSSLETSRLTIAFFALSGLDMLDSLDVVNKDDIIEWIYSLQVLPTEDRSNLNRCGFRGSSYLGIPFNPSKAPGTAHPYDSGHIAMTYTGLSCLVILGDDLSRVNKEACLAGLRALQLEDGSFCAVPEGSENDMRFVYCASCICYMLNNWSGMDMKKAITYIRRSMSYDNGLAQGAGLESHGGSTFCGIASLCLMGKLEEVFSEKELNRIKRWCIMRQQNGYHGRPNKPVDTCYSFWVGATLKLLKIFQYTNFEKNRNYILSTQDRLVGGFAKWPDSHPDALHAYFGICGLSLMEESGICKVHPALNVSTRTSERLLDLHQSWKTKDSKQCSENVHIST
T2 sequence (P49356 whole entry): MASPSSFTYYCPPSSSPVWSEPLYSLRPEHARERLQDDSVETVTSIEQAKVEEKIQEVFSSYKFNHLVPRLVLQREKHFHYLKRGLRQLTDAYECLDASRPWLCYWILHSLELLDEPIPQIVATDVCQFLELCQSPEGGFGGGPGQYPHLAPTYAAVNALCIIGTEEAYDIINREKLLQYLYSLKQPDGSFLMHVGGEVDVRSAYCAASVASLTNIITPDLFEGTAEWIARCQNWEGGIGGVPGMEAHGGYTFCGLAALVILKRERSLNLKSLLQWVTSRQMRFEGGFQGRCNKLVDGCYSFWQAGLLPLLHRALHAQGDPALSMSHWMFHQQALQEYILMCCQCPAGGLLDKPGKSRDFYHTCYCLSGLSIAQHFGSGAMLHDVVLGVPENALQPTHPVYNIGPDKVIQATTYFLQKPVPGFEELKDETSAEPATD

Compound | IC50 (GGTase I; [3]) | Selectivity (FTase [1]; Table 4) | IC50 (FTase [1]; Table 4, read-out: FTase IC50) | other results
N[C@@H](CS)C(=O)Nc1ccc(-c2cccc(C(=O)O)c2)cc1 [FTI-278, Cysteinyl-4-amino-3'-carboxybiphenyl] | 100 µM | 7 | 13.5 µM | –
CSCC[C@H](NC(=O)c1ccc(NC(=O)[C@@H](N)CS)cc1-c1ccccc1)C(=O)O.O=C(O)C(F)(F)F [FTI-272, TFA.Cysteine-4-amino-2-phenylbenzoyl methionine] | – | – | – | IC50 (GGTase I; [4]): 0.267 µM; GG/F (FTase [1]; Table 1): 53; IC50 (FTase [1]; Table 1, read-out: FTase IC50): 0.005 µM
N[C@@H](CS)CNc1ccc(-c2cccc(-c3nnn[nH]3)c2)cc1 [FTI-2102, red.Cys-4-amino-3'-tetrazolylbiphenyl] | 5 µM | 187 | 0.03 µM | –
N[C@@H](CS)C(=O)NCc1cccc(-c2cccc(C(=O)O)c2)c1 [FTI-238, Cys-3-aminomethyl-3'-carboxybiphenyl] | > 100 µM | > 1 | 100 µM | Substrate (FTase [2]): no
COc1cc(NC[C@@H](N)CS)ccc1-c1cccc(C(=O)O)c1 [FTI-281, 2-Methoxy-4-N-[2(R)-amino-3-mercaptopropyl]amino-3'-carboxybiphenyl] | 43.6 µM | 1090 | 0.04 µM | –
CC(C)C[C@H](NC(=O)c1ccc(NC[C@@H](N)CS)cc1-c1ccccc1)C(=O)O [GGTI-287, 4-[2(R)-amino-3-mercaptopropyl]amino-2-phenylbenzoyl-(S)-leucine] | – | – | – | selectivity for GGTase I over FTase (GGTase I): 5 fold; IC50 (GGTase I; Table 5, read-out: In Vitro IC50 GGTase I): 0.005 µM; IC50 (GGTase I; read-out: GGTase I IC50): 0.005 µM; IC50 (FTase [1]; Table 5, read-out: In Vitro IC50 FTase): 0.025 µM
NC[C@H](N)CNc1ccc(-c2cccc(C(=O)O)c2)cc1 [FTI-292, (L)4(2,3-diaminopropyl)-amino-3'-carboxybiphenyl] | – | – | 60 µM | –
Cc1cccc(-c2ccc(NC[C@@H](N)CS)cc2-c2ccccc2)c1 [FTI-285, red.Cys-4-amino-2-phenyl-3'-methylbiphenyl] | 8.5 µM | 4 | 2.08 µM | –
COC(=O)c1cccc(-c2ccc(NC[C@@H](N)CS)cc2)c1 [FTI-259, 4-N-[2(R)-Amino-3-mercaptopropyl]amino-3'-methoxycarbonylbiphenyl] | > 100 µM | 109 | 0.917 µM | Substrate (FTase [2]): no
NCC(N)C(=O)Nc1ccc(-c2cccc(C(=O)O)c2)cc1 (stereo not drawn) [FTI-291, 4-(3-Aminoalanyl)-amino-3'-carboxybiphenyl] | – | – | 210 µM | –
NCC(N)CNc1ccc(-c2cccc(C(=O)O)c2)cc1 (stereo not drawn) [FTI-282, (DL) 4-(2,3-diaminopropyl)-amino-3' carboxybiphenyl] | – | > 2 | 50 µM | –
N[C@@H](CS)CNc1ccc(-c2cccc(C(=O)O)c2)c(-c2ccccc2)c1 [FTI-289, red.Cys-4-amino-2-phenyl-3'-carboxybiphenyl] | 0.643 µM | 40 | 0.016 µM | –
CCCOc1cc(NC[C@@H](N)CS)ccc1-c1cccc(C(=O)O)c1 [FTI-288, red.Cys-4-amino-2-OPr-3'-carboxybiphenyl] | 2.38 µM | 59 | 0.041 µM | –
N[C@@H](CS)CNc1ccc(-c2ccccc2)cc1 [FTI-268, 4-N-[2(R)Amino-3-Mercaptopropyl]aminobiphenyl] | > 100 µM | 93 | 1.07 µM | Substrate (FTase [2]): no
COc1cc(C(=O)NC(CCSC)C(=O)O)ccc1NC(=O)C(N)CS.O=C(O)C(F)(F)F (stereo not drawn) [FTI-261, TFA.Cysteine-4-amino-3-methoxybenzoyl methionine] | – | – | – | IC50 (GGTase I; [4]): 50 µM; GG/F (FTase [1]; Table 1): 20; IC50 (FTase [1]; Table 1, read-out: FTase IC50): 2.55 µM
N[C@@H](CS)CNc1ccc(-c2ccccc2C(=O)O)cc1 [FTI-273, 4-N-[2(R)-Amino-3-mercaptopropyl]amino-2'-carboxybiphenyl] | 140 µM | 258 | 0.543 µM | –
N[C@@H](CS)CNCc1cccc(-c2cccc(C(=O)O)c2)c1 [FTI-283, red.Cys-3-aminomethyl-3'-carboxybiphenyl] | 35 µM | 3 | 11 µM | –
TFA.cysteine-4-amino-1-naphthoyl methionine [FTI-270] | – | – | – | IC50 (GGTase I; [4]): 3.15 µM; GG/F (FTase [1]; Table 1): 22; IC50 (FTase [1]; Table 1, read-out: FTase IC50): 0.143 µM
HCl-cysteine-4-aminobenzoyl methionine [FTI-232] | 1.5 µM | 10 | 0.15 µM | IC50 (GGTase I; [4]): 1.2 µM; selectivity for FTase over GGTase I (FTase [1]): 10 fold; GG/F (FTase [1]; Table 1): 6; IC50 (FTase [1]; Table 1, read-out: FTase IC50): 0.213 µM
CCS(=O)(=O)NCC(N)C(=O)Nc1ccc(-c2cccc(C(=O)O)c2)cc1 (stereo not drawn) [FTI-295, 4-(Ethylsulfonyl-3-aminoalanyl)-amino-3'-carboxy-biphenyl] | > 1000 µM | > 5 | 200 µM | –
CSCC[C@H](NC(=O)c1ccc(NC(=O)[C@@H](N)CS)cc1-c1cc(C)cc(C)c1)C(=O)O.O=C(O)C(F)(F)F [FTI-275, TFA.Cysteine-4-amino-2-(3,5-dimethylphenyl)benzoyl methionine] | – | – | – | IC50 (GGTase I; [4]): 0.4 µM; GG/F (FTase [1]; Table 1): 1; IC50 (FTase [1]; Table 1, read-out: FTase IC50): 0.405 µM
TFA.cysteine-4-amino-3-methylbenzoyl methionine [FTI-260] | – | – | – | IC50 (GGTase I; [4]): 9 µM; GG/F (FTase [1]; Table 1): 11; IC50 (FTase [1]; Table 1, read-out: FTase IC50): 0.825 µM
COC(=O)C(CCSC)NC(=O)c1ccc(NC(=O)C(N)CS)cc1-c1ccccc1.Cl (stereo not drawn) [FTI-274, HCl.cysteine-4-amino-2-phenylbenzoyl methionine methyl ester] | – | – | – | IC50 (GGTase I; [4]): 30 µM; GG/F (FTase [1]; Table 1): 15; IC50 (FTase [1]; Table 1, read-out: FTase IC50): 2.05 µM
4-(Vinylsulfonyl-3-aminoalanyl)-amino-3'-carboxybiphenyl [FTI-296] | > 1000 µM | > 2 | 430 µM | –
